Laboratory results published in article PMC3082517 (PLoS Biology, 2011).

B1: NGF: neurotrophin nerve growth factor (protein)
chain: SSTHPVFHMGEFSVCDSVSVWVGDKTTATDIKGKEVTVLAEVNINNSVFRQYFFETKCRASNPVESGCRGIDSKHWNSYCTTTHTFVKALTTDEKQAAWRFIRIDTACVCVLSRKATRRG

Tests used:
TrkA [1] = target: T1, TrkA (Rattus norvegicus, UniProt P35739); assay: [3H]-DHEA saturation binding to membranes of HEK293 cells transfected with TrkA cDNA; set-up: expressed in transfected cells; host or cells: HEK293; details: KD of [3H]-DHEA binding (Scatchard analysis), n = 3
[2] = test system: TrkA positive sensory neurons of dorsal root ganglia; assay: Apoptotic loss of sensory neurons in dorsal root ganglia of NGF null mouse embryos; details: ngf−/− embryos at E14, mothers treated daily with DHEA 2 mg
Description: ngf+/− mice [13] were obtained from the Jackson Laboratory and maintained on C57BL/6 background. […] Animals were housed in cages maintained under a constant 12 h light–dark cycle at 21–23°C, with free access to food and tap water.
Mice heterozygous for the NGF null mutation were interbred to obtain mice homozygous for the NGF gene disruption and the first day of gestation determined by the discovery of a copulation plug. The mothers were treated daily with a subcutaneous injection of DHEA (2 mg/day) or vehicle (4.5% ethanol in 0.9% saline) starting from the third day after gestation. Animals were collected at E14. At the day of collection the mothers were deeply anesthetized with sodium pentobarbital (Dolethal 0.7 ml/kg i.p.) followed by transcardial perfusion with saline solution containing heparin for about 7 min, and with 4% PFA, 15% Picric Acid, 0.05% GA in phosphate buffer 0.1 M, for another 7 min. After the perfusion the embryos were collected and maintained in the same fixative overnight at 4°C. Embryos were then washed in 0.1 M phosphate buffer and cryoprotected by using 10% sucrose followed by 20% sucrose overnight at 4°C. Finally, embryos were frozen in OCT in iso-pentane over liquid nitrogen for 5 min and the frozen tissues were stored for later use at −80°C. The samples were sectioned (20 µm) and mounted onto Superfrost plus slides (Menzel-Glaser J1800AMNZ). Slides were left to air-dry overnight at room temperature (RT) and were then either used immediately or were fixed in cold acetone for 1 min and stored at −80°C for later use.
Stored or fresh slides were fixed for 15 min in cold acetone at 4°C and left to dry for 10 min at room temperature. They were then washed in PB 0.1 M, then in TBS, and incubated for 45 min with 10% horse serum in TBS-T 0.1%. […] Sections were incubated for 4 h at RT and overnight at 4°C; they were then washed in TBS-T 0.1% and the anti-rabbit secondary antibodies (Alexa Fluor 488 and Alexa Fluor 546, 1∶1000 in TBS-T 0.1%) were added for 6 h at RT. […]

p75^NTR [3] = target: T2, p75^NTR (Rattus norvegicus, UniProt P07174); assay: [125I]-NGF displacement, HEK293^p75NTR cell membranes; assay type: binding; details: unpublished data
T2 construct: expressed in transfected cells; host or cells: HEK293
T2 sequence (P07174 30-425): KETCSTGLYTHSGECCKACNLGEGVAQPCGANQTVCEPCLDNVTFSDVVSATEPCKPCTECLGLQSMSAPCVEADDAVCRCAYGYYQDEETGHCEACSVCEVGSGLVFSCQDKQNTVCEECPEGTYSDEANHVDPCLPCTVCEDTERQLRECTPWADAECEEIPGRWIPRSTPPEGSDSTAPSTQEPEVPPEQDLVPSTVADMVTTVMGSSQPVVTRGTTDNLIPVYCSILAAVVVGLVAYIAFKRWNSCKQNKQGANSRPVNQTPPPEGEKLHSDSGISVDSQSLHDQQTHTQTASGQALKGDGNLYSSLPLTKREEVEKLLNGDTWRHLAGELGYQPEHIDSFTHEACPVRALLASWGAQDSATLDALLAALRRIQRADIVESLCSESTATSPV

p75^NTR [4] = target: T2, p75^NTR; assay: [3H]-DHEA saturation binding to membranes of HEK293 cells transfected with p75NTR cDNA; details: KD of [3H]-DHEA binding (Scatchard analysis), n = 3
[5] = target: T3, p75^NTR with effectors TRAF6, RIP2, RhoGDI (Rattus norvegicus, UniProt P07174); assay: Co-immunoprecipitation of p75NTR with effectors TRAF6, RIP2, RhoGDI in co-transfected HEK293 cells; assay type: cell-based; details: co-transfected HEK293, 30 min; 100 nM DHEA, 100 ng/ml NGF
T3 construct: expressed in transfected cells; host or cells: HEK293
T3 sequence (P07174 30-425): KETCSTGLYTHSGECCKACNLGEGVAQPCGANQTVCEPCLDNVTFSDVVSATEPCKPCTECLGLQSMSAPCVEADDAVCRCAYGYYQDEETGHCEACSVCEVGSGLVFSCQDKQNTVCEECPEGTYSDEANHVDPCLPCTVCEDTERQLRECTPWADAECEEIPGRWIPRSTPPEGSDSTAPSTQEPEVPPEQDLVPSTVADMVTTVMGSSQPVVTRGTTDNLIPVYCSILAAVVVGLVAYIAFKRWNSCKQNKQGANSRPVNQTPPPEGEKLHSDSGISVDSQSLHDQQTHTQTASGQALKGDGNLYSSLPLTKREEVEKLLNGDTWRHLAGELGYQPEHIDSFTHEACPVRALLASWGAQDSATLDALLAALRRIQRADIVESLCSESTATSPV
Description: (§1) HEK293 cells were transfected with the appropriate plasmids (TrkA, p75^NTR, RIP2, TRAF-6, and RhoGDI) by using Lipofectamine 2000 (Invitrogen). Cells were harvested 48 h after transfection and suspended in lysis buffer (50 mM Tris-HCl, 0.15 M NaCl, 1% Triton-X100, pH 7.4) supplemented with protease inhibitors. Lysates were precleared for 1 h with Protein A-Sepharose beads (Amersham) and immunoprecipitated with the appropriate antibody (pTyr, Flag, or c-myc) overnight at 4°C. Protein A Sepharose beads were incubated with the lysates for 4 h at 4°C with gentle shaking. […] Beads were collected by centrifugation, washed four times with lysis buffer, and resuspended in SDS loading buffer. Proteins were separated by SDS/PAGE, followed by immunoblotting with specific antibodies.

TrkA [6] = target: T1, TrkA; assay: [125I]-NGF displacement, HEK293^TrkA cell membranes; assay type: binding; set-up: expressed in transfected cells; host or cells: HEK293; details: unpublished data
TrkA [7] = target: T1, TrkA; assay: TrkA phosphorylation in HEK293^TrkA transfectants (anti-tyrosine IP, Western blot); assay type: cell-based; set-up: expressed in transfected cells; host or cells: HEK293; details: 10 min (and 20 min), steroids 100 nM, NGF 100 ng/ml
Description: as §1
(§2) PC12 or HEK293 cells lysates were electrophoresed through a 12% SDS-polyacrylamide gel, and then proteins were transferred to nitrocellulose membranes, which were processed according to standard Western blotting procedures, as previously described. To detect protein levels, membranes were incubated with the appropriate antibodies: Bcl-2 (dilution 1∶500), phospho TrkA (dilution 1∶500), total TrkA (dilution1∶500), p75^NTR (dilution 1∶500), phospho Shc (dilution 1∶1000), total Shc (dilution 1∶1000), phospho Akt (dilution 1∶500), total Akt (dilution 1∶500), phospho ERK1/2 (dilution 1∶500), and total ERK1/2 (dilution 1∶500). Proteins were visualized using the ECL Western blotting kit (ECL Amersham Biosciences, UK), and blots were exposed to Kodak X-Omat AR films. A PC-based Image Analysis program was used to quantify the intensity of each band (Image Analysis, Inc., Ontario, Canada).
(§3) To normalize for protein content the blots were stripped and stained with GAPDH antibody (dilution 1∶1000); the concentration of each target protein was normalized versus GAPDH. Where phosphorylation of TrkA or kinases was measured, membranes were first probed for the phosphorylated form of the protein, then stripped, and probed for the total protein.

PC12 cells = assay: Apoptosis of serum deprived PC12 cells, FACS Annexin V-FITC and PI; assay type: cell-based; details: serum free, 100 nM, 24 h, n = 8; serum free control 53.5%±17.6%
Description: (§4) PC12 cells were cultured in 12-well plates, and 24 h later they were transfected with the si/shRNAs for TrkA and/or p75^NTR. […] Apoptosis was quantified 24 h later with annexin V-FITC and PI (BD Pharmingen) according to our protocol.

TrkA [8] = target: T1, TrkA; assay: Tyr490 TrkA phosphorylation in naive PC12 cells (Western blot); assay type: cell-based; set-up: PC12 cells, endogenously expressing TrkA receptors; endogenous in cells; host or cells: PC12; details: 10 min, DHEA 100 nM, NGF 100 ng/ml
Description: as §2, §3

nnr5 cells = assay: Apoptosis of nnr5 cells (PC12 clone expressing only p75NTR); assay type: cell-based; details: DHEA 100 nM, NGF 100 ng/ml
Description: PC12 cells were obtained from LGC Promochem (LGC Standards GmbH, Germany) and nnr5 cells from Dr. C.F. Ibáñez (Karolinska Institute). Both cell types were grown in RPMI 1640 containing 2 mM L-glutamine, 15 mM HEPES, 100 units/ml penicillin, 0.1 mg/ml streptomycin, and 10% horse serum, 5% fetal calf serum (both charcoal-stripped for removing endogenous steroids) at 5% CO2 and 37°C. HEK-293 cells were obtained from LGC Promochem. Cells were grown in DMEM medium containing 10% fetal bovine serum (charcoal-stripped for removing endogenous steroids), 100 units/ml penicillin, and 0.1 mg/ml streptomycin, at 5% CO2 and […]. HEK-293 and PC12 cells were transfected with Lipofectamine 2000 (InVitrogen) according to manufacturer's instructions. Transfected cells were typically used on the 2nd day after transfection.
as §4

[9] = test system: Shc, ERK1/2, and Akt kinases; assay: Phosphorylation of Shc, ERK1/2 and Akt kinases in PC12 cells (Western blot); assay type: cell-based; details: serum deprived naive PC12 cells, 10 min; 100 nM DHEA, 100 ng/ml NGF
Description: as §2, §3

TrkA [10] = assay: TrkA protein levels in serum deprived PC12 cells (immunoblotting); assay type: cell-based; details: serum deprived PC12, 12 to 48 h; 100 nM DHEA, 100 ng/ml NGF; n = 5, p<0.01
Description: as §2, §3

PC12 cell membranes [11] = assay: [3H]-DHEA saturation binding to PC12 cell membranes; details: membranes from PC12 cells transfected with siRNA against GAPDH; listed as [^3H]-DHEA; read-out: KD of [3H]-DHEA binding (Scatchard analysis)
sympathetic SCG neurons = assay: NGF deprivation-induced apoptosis of superior cervical ganglia sympathetic neurons, Annexin V; assay type: cell-based, rat; details: 100 nM DHEA, medium lacking NGF with anti-NGF antiserum
Description: Cells were plated on collagen coated 24-well plates and cultured for 5 d prior to use.

p75^NTR [12] = assay: p75NTR protein levels in serum deprived PC12 cells (immunoblotting); assay type: cell-based; details: serum deprived PC12, between 24 and 48 h; 100 nM DHEA, 100 ng/ml NGF; n = 5, p<0.01
Description: as §2, §3

p75^NTR receptor = target: p75^NTR receptor; set-up: method as in PMID 16939974; details: read-out: KD of NGF binding to p75NTR receptor; cited from earlier work
PC12 cell membranes [13] = assay: [3H]-DHEA displacement, PC12 cell membranes; assay type: binding; details: unpublished data
Description: HEK293 cells transfected with an empty vector (HEK293-Vector) or overexpressing p75^NTR (HEK293-p75) or TrkA (HEK293-TrkA), and PC12 cells wild type or shRNA knocked down for p75^NTR and TrkA, were cultured, collected by scraping on ice and washed twice with cold Phosphate Buffer Saline (PBS), pH 7.4. After centrifugation at 1,200 rpm, cells were homogenized in a 50 mM Tris-HCl buffer, pH 7.4 (at 4°C), containing freshly added protease inhibitors (1 mM PMSF and 1 µg/ml aprotinin). Crude membrane fractions were isolated by differential centrifugation at 2,500×g (10 min at 4°C, to remove unbroken cells and nuclei) and 102,000×g (1 h, at 4°C). Membranes were washed once with ice-cold 50 mM Tris–HCl buffer, pH 7.4, and re-suspended in the same buffer. […]
Membranes were incubated for 30 min at 25°C or overnight at 4°C, on a rotating plate; then they were collected on GF/B filters, prewetted in 0.5% PEI solution at 4°C. Filters were washed three times with ice-cold PBS, dried, and counted in scintillation fluid (SigmaFluor, Sigma) in a scintillation counter (Perkin Elmer, Foster City, CA) with 60% efficiency for Tritium. For saturation curves, specific binding (Bound, B) was calculated as the difference of Total Binding − Non Specific Binding. KDs were calculated from B/F over B Scatchard plots. […]

TrkA receptor = target: TrkA receptor; set-up: method as in PMID 16939974; details: read-out: KD of NGF binding to TrkA receptor; cited from earlier work

T1 sequence (P35739 33-799): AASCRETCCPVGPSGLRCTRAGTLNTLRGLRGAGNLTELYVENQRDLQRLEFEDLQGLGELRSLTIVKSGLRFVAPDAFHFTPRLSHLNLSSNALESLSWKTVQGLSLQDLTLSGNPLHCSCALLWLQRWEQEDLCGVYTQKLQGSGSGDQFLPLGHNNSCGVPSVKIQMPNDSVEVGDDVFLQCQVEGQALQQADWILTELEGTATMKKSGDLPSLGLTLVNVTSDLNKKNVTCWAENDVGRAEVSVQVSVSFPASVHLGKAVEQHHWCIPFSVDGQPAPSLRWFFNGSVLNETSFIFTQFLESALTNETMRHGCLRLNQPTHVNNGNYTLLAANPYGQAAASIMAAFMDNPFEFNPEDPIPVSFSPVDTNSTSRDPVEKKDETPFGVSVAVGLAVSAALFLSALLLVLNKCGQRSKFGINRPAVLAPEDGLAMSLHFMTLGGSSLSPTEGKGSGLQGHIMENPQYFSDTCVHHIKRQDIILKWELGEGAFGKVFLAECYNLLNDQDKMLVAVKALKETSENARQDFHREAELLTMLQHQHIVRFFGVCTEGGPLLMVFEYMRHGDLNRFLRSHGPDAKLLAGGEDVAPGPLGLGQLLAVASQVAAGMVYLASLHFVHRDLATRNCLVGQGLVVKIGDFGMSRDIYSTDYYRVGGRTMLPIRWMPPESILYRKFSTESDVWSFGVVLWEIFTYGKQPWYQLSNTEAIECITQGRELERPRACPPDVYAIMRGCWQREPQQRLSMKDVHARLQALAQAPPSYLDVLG

Molecule	association of p75NTR with effectors TRAF6 and RIP2 [5]	dissociation of RhoGDI from p75NTR receptors [5]	phosphorylation of TrkA (TrkA [7])	phosphorylation of TrkA (Tyr490) (TrkA [8])	effect on apoptosis of nnr5 cells (nnr5 cells)	phosphorylation of Shc, ERK1/2, and Akt kinases [9]	TrkA receptor levels (TrkA [10])	p75NTR receptor levels (p75^NTR [12])	further results
C[C@]12CC[C@H](O)CC1=CC[C@@H]1[C@@H]2CC[C@]2(C)C(=O)CC[C@@H]12 [DHEA, dehydroepiandrosterone]	efficiently induced the association	facilitating the dissociation	strongly increased	strongly induced	induced apoptosis	strongly increased	significantly increased	significantly decreased	Kd (TrkA [1]; 25°C for 30 min): 7.4 ± 1.75 nM; Kd (TrkA [1]; overnight incubation at 4°C): 7.8 ± 3.1 nM; Fluoro Jade C and Caspase 3 positive neurons in the DRG [2]: significantly reduced; TUNEL-positive apoptotic neurons in the DRG [2]: decreased to levels shown in ngf+/− embryos; TrkA positive staining in the DRG [2]: significant increase; displacement of [125I]-NGF binding (in words) (p75^NTR [3]): unable to effectively displace; Kd (p75^NTR [4]; 25°C for 30 min): 5.6 ± 0.55 nM; Kd (p75^NTR [4]; overnight incubation at 4°C): 5.9 ± 1.7 nM; displacement of [125I]-NGF binding (in words) (TrkA [6]): unable to effectively displace; increase of apoptosis (% of difference from serum supplemented cells) (PC12 cells): 6%±1.4%; Kd (PC12 cell membranes [11]): 1.07 ± 0.43 nM; effect on apoptotic sympathetic neurons after NGF withdrawal (sympathetic SCG neurons): effectively compensated for NGF by decreasing the levels of apoptotic neurons
B1	efficiently induced the association	facilitating the dissociation	strongly increased	strongly induced	induced apoptosis	strongly increased	significantly increased	significantly decreased	Kd (p75^NTR receptor): 1 nM; IC50 (PC12 cell membranes [13]): 0.92 ± 0.32 nM; Kd (TrkA receptor): 0.01 nM
